Assay results taken from US8038984B2, “Membrane-permeant peptide complexes for treatment of sepsis” (Washington University, priority 1998, dated 2011).
Numbered stars: 1 amine (or outer) side, 2 acyl side, 3 side chain; on linkers, the order of the positions; unused ones are H or OH. Square brackets hold non-standard residues; d marks the D form. Ends that are not written are not given here. εLys = N[C@@H](CCCCN[*:1])C(=O)[*:2]; D‑k∗gc = not defined here; K∗GC = not defined here; Ahx = NCCCCCC(=O)O

Legend:
[1] = test system: human Jurkat leukemia cells; test: Cell accumulation (uptake) of Tc-99m-Tat-peptide complexes in Jurkat cells; assay type: cell-based; details: for Jurkat Cell Uptake: Table 2, radiolabeled (99mTc) peptides, net cell uptake; for effect of inhibitor on net cell uptake of the Tat-peptide metal complex: colchicine 100 ng/ml, taxol 1 μM, nocodozole 5 μg/ml, cytochalasin D 1 μM, brefeldin A 2.5 μg/ml, wortmannin 100 nM; for 20 min Uptake: [99mTc] complexes, 37° C.; for U/W Ratio: uptake/washout ratio
Protocol: Control solution for cell uptake experiments was a modified Earle's balanced salt solution (MEBSS) containing (mM): 145 Na^+, 5.4 K^+, 1.2 Ca^2+, 0.8 Mg^2+, 152 Cl^−, 0.8 H2PO4^−, 0.8 SO4^2−, 5.6 dextrose, 4.0 HEPES, and 1% bovine calf serum (vol/vol), pH 7.4±0.05. A 130 mM K^+/20 mM Cl^− solution was made by equimolar substitution of potassium methanesulfonate for NaCl as described by Piwnica-Worms et al. (J. Gen. Physiol., 81:731-748, 1983).
(§1) Characterization of accumulation of Tc-99m-peptide complex was also performed for nonadherent cell lines such as human Jurkat leukemia cells with minor modifications of methods described in the literature (Bosch et al., Leukemia, 11: 1131-1137, 1997). Transport experiments were performed in siliconized microfuge tubes and initiated by addition of 732.5 μl of cells at 2-3×10^6 cells/ml to 10 μl of buffer containing Tc-99m-peptide complex and 7.5 μl of vehicle alone or of any added drug in vehicle at 100-fold the desired concentration. The tubes were incubated in a 37° C. water bath with occasional mixing. The reaction was terminated by centrifuging 250 μl aliquots from the reaction for 10 seconds through 800 μl of a 75:25 mixture of silicon oil, density=1.050 (Aldrich) and mineral oil, density=0.875 (Acros). An aliquot of the aqueous phase was obtained to normalize extracellular concentration of the complex to cell-associated activity, then the oil and aqueous phases were aspirated and the cell pellet extracted in 0.5 ml of 1% SDS, 10 mM sodium borate. For tracer washout experiments, cells were first incubated to plateau uptake (10 min) in loading buffer (37° C.), collected by rapid centrifugation and the pellet resuspended in 50 ml MEBSS (4° C.) to clear extracellular tracer. Following another rapid spin, the cell pellet was resuspended in isotope-free MEBSS (37° C.) and the experiment terminated as above after various times in warm washout buffer. Radioactivity of the cell pellet, buffers and stocks were determined on a gamma counter (Cobra II, 130-165 keV window) and cell protein was determined by the BCA assay (Pierce). Transport data are reported as fmol Tc-complex (mg protein)^−1 (nM0)^− as previously described, with (nM0)^−1 representing total concentration of peptide conjugate in the extracellular buffer (Piwnica-Worms et al., Circulation, 82: 1826-1838, 1990).
Kinetic experiments of [^99mTc]D-Tat-peptide complexes were performed in Jurkat leukemia cells suspended in MEBSS with minor modification of the methods described in Example 6. Transport experiments were performed in siliconized microfuge tubes and initiated by addition of 732.5 μl of cells at 2-3×10^6 cells/ml to 10 μl of MEBSS containing [^99mTc]D-Tat-peptide complex and 7.5 μl of vehicle alone or of any added drug in vehicle at 100 fold the desired concentration. Unless stated otherwise, [^99mTc]D-Tat-peptide complex was added to MEBSS accompanied by a molar excess of unlabeled D-Tat-peptide as obtained directly from the labeling procedure. The final total peptide concentration was 7 nM to 8 μM (1-2 μCi/ml). The tube were incubated at 37° C. and the reaction terminated as previously described. For peptide washout experiments, cells were first incubated to plateau uptake (20 minutes) in MEBSS loading buffer at 37° C., collected by rapid centrifugation and the pellet resuspended in 50 ml of isotope-free MEBSS at 4° C. to clear extracellular tracer. Following another rapid spin, the cell pellet was resuspended in isotope-free MEBSS at 37° C. for various times and the reaction terminated as described previously. Protein assays and determination of gamma activity were as described in Example 6. Absolute concentration of total [Tc]Tat-peptide complex in solution was determined from the specific activity of Tc, based on equations of Mo/Tc generator equilibrium (Lamson et al., J. Nucl. Med., 16:639-641, 1975). […]

[2] = test system: human Jurkat leukemia cells; test: Washout of Tc-99m-Tat-peptide complexes from preloaded Jurkat cells; assay type: cell-based; details: for 30 min Washout: residual activity remaining within the cell 30 minutes after a wash in isotope-free buffer
Protocol: as §1
Kinetic experiments of [^99mTc]D-Tat-peptide complexes were performed in Jurkat leukemia cells suspended in MEBSS with minor modification of the methods described in Example 6. Transport experiments were performed in siliconized microfuge tubes and initiated by addition of 732.5 μl of cells at 2-3×10^6 cells/ml to 10 μl of MEBSS containing [^99mTc]D-Tat-peptide complex and 7.5 μl of vehicle alone or of any added drug in vehicle at 100 fold the desired concentration. Unless stated otherwise, [^99mTc]D-Tat-peptide complex was added to MEBSS accompanied by a molar excess of unlabeled D-Tat-peptide as obtained directly from the labeling procedure. The final total peptide concentration was 7 nM to 8 μM (1-2 μCi/ml). The tube were incubated at 37° C. and the reaction terminated as previously described. For peptide washout experiments, cells were first incubated to plateau uptake (20 minutes) in MEBSS loading buffer at 37° C., collected by rapid centrifugation and the pellet resuspended in 50 ml of isotope-free MEBSS at 4° C. to clear extracellular tracer. Following another rapid spin, the cell pellet was resuspended in isotope-free MEBSS at 37° C. for various times and the reaction terminated as described previously. Protein assays and determination of gamma activity were as described in Example 6. Absolute concentration of total [Tc]Tat-peptide complex in solution was determined from the specific activity of Tc, based on equations of Mo/Tc generator equilibrium (Lamson et al., J. Nucl. Med., 16:639-641, 1975). Transport data are reported as pmol of peptidei (mg protein)^−1 (μM0)^−1, wherein peptidei represents total peptide conjugate within the cells and (nM0)^−1 represents concentration of total peptide conjugate in the extracellular buffer.

## 1a (GRKKRRQRRR; acetyl; AHA-K*GC chelator, amide) [Conjugate 1a]
[1]; Jurkat cells
  Jurkat Cell Uptake: 92.90 ± 21.17 pmol (mg protein)^−1 (μM0)^−1

## 2b (GRKKRRQRRR; acetyl; AHA-D-k*gc chelator, amide) [Conjugate 2b]
[1]; Jurkat cells
  Jurkat Cell Uptake: 50.39 ± 25.73 pmol (mg protein)^−1 (μM0)^−1

## 4d (Ac-RKKRRQRRR-{Ahx-K∗GC-NH2}; reading uncertain) [Conjugate 4d]
[1]; Jurkat cells
  Jurkat Cell Uptake: 90.75 ± 41.04 pmol (mg protein)^−1 (μM0)^−1

## 5e (Ac-RKKRRQRRR-{Ahx-D‑k∗gc-NH2}; reading uncertain) [Conjugate 5e]
[1]; Jurkat cells
  Jurkat Cell Uptake: 48.81 ± 2.91 pmol (mg protein)^−1 (μM0)^−1

## 8h (RKKRRQRRR-{Ahx-D‑k∗gc-NH2}; reading uncertain) [Conjugate 8h]
[1]; Jurkat cells
  Jurkat Cell Uptake: 64.35 ± 1.63 pmol (mg protein)^−1 (μM0)^−1

## 10j (GRKKRRQRRR; AHA linker, D-k*gc chelator, amide) [Conjugate 10j]
[1]; Jurkat cells
  Jurkat Cell Uptake: 106.96 ± 1.55 pmol (mg protein)^−1 (μM0)^−1

## 12l (RKKRRQRRR; not fully specified; biotin; AHA-K*GC chelator, amide) [Conjugate 12l]
[1]; Jurkat cells
  Jurkat Cell Uptake: 51.07 ± 11.78 pmol (mg protein)^−1 (μM0)^−1

## 28 (Ac-RRRRRRR-{Ahx-D‑k∗gc-NH2}; reading uncertain) [Conjugate 28]
[1]; Jurkat cells
  Jurkat Cell Uptake: 34.73 ± 6.99 pmol (mg protein)^−1 (μM0)^−1

## 30 (Ac-RRRRRRRR-{Ahx-D‑k∗gc-NH2}; reading uncertain) [Conjugate 30]
[1]; Jurkat cells
  Jurkat Cell Uptake: 59.02 ± 5.52 pmol (mg protein)^−1 (μM0)^−1

## 32 (Ac-RRRRRRRRR-{Ahx-D‑k∗gc-NH2}; reading uncertain) [Conjugate 32]
[1]; Jurkat cells
  Jurkat Cell Uptake: 129.11 ± 69.01 pmol (mg protein)^−1 (μM0)^−1

## COc1cc2c(c(OC)c1OC)-c1ccc(OC)c(=O)cc1[C@@H](NC(C)=O)CC2 [Colchicine, reference compound]
[1]; Jurkat cells, data not shown
  effect of inhibitor on net cell uptake of the Tat-peptide metal complex: no significant effect

## C[C@H]1CCC/C=C/[C@@H]2C[C@H](O)C[C@H]2[C@H](O)/C=C/C(=O)O1 [brefeldin A, reference compound]
[1]; Jurkat cells, data not shown
  effect of inhibitor on net cell uptake of the Tat-peptide metal complex: no significant effect

## C=C1[C@@H](C)[C@H]2[C@H](Cc3ccccc3)NC(=O)[C@]23[C@H](OC(C)=O)/C=C/[C@@](C)(O)C(=O)[C@@H](C)C/C=C/[C@H]3[C@@H]1O [cytochalasin D, reference compound]
[1]; Jurkat cells, data not shown
  effect of inhibitor on net cell uptake of the Tat-peptide metal complex: no significant effect

## COC(=O)Nc1nc2ccc(C(=O)c3cccs3)cc2n1C [nocodozole, reference compound]
[1]; Jurkat cells, data not shown
  effect of inhibitor on net cell uptake of the Tat-peptide metal complex: no significant effect

## CC(=O)O[C@H]1C(=O)[C@@]2(C)[C@H]([C@H](OC(=O)c3ccccc3)[C@]3(O)C[C@H](OC(=O)[C@H](O)[C@@H](NC(=O)c4ccccc4)c4ccccc4)C(C)=C1C3(C)C)[C@]1(OC(C)=O)CO[C@@H]1C[C@@H]2O [taxol, reference compound]
[1]; Jurkat cells, data not shown
  effect of inhibitor on net cell uptake of the Tat-peptide metal complex: no significant effect

## COC[C@H]1OC(=O)c2coc3c2[C@@]1(C)C1=C(C3=O)[C@@H]2CCC(=O)[C@@]2(C)C[C@H]1OC(C)=O [wortmannin, reference compound]
[1]; Jurkat cells, data not shown
  effect of inhibitor on net cell uptake of the Tat-peptide metal complex: no significant effect

## Acetyl- GRKKRRQRRR-AHA- εKGC-amide [Conjugate 1]
[1]; Jurkat cells
  20 min Uptake: 77.93 pmol (mg protein)^−1 (μM0)^−1
  U/W Ratio: 3.2
[2]
  30 min Washout: 24.26 pmol (mg protein)^−1 (μM0)^−1

## acetyl-GRKKRRORRR-AHA-εKGC-amide(Tc^v-99m) trifluoroacetate [Example 2]
[1]; 130 mM K+/20 mM Cl− and 1 μg/ml valinomycin, data not shown
  net uptake under isoelectric conditions compared to control buffer: not decreased
[1]; 4° C., Jurkat cells
  net accumulation in ice-cold buffer: only modestly inhibited
[1]; Jurkat cells
  time to approach plateau accumulation: ≤ 2 min
  20 min Uptake: 61.73 pmol (mg protein)^−1 (μM0)^−1
  U/W Ratio: 5.6
[1]; Jurkat cells continuously exposed to the complex
  time plateau (quasi-steady state) was maintained: at least 1 hour
[1]; Jurkat cells, n=4
  Steady-state value of accumulation: 116±3 fmol (mg protein)^−1 (nM0)^−1
[1]; given a typical cell water space of 4 μl (mg protein)^−1
  in/out ratio: ~30
[1]; plateau accumulation after 10 minutes, 7 nM to 8 μM, curve fitting
  extracellular concentration of half-maximal accumulation: ~3 µM
[1]; within 2 minutes, extracellular concentration of peptide 950 nM, Jurkat cells
  cell accumulation complete: 90%
[2]
  30 min Washout: 10.99 pmol (mg protein)^−1 (μM0)^−1
[2]; slowly exchanging or retaining compartment after washout
  residual level of peptide remaining in cells: < 10 % of peak activity
[2]; within 20 minutes, preloaded Jurkat cells
  washout complete: ~90%

## acetyl-GRKKRRQRRR-GDEVDG-εKGC-amide (Ac-GRKKRRQRRRGDEVDG[εLys]GC-NH2; SMILES CC(=O)NCC(=O)N[C@@H](CCCNC(=N)N)C(=O)N[C@@H](CCCCN)C(=O)N[C@@H](CCCCN)C(=O)N[C@@H](CCCNC(=N)N)C(=O)N[C@@H](CCCNC(=N)N)C(=O)N[C@@H](CCC(N)=O)C(=O)N[C@@H](CCCNC(=N)N)C(=O)N[C@@H](CCCNC(=N)N)C(=O)N[C@@H](CCCNC(=N)N)C(=O)NCC(=O)N[C@@H](CC(=O)O)C(=O)N[C@@H](CCC(=O)O)C(=O)N[C@H](C(=O)N[C@@H](CC(=O)O)C(=O)NCC(=O)NCCCC[C@H](N)C(=O)NCC(=O)N[C@@H](CS)C(N)=O)C(C)C) [Example 8]
[1]; Jurkat cells
  20 min Uptake: 317.92 pmol (mg protein)^−1 (μM0)^−1
  U/W Ratio: 6.2
[2]
  30 min Washout: 50.87 pmol (mg protein)^−1 (μM0)^−1
